Data on 40 compounds can be found in ChEMBL document CHEMBL1128209, “Cyclooxygenase-2 inhibitors. Synthesis and pharmacological activities of 5-methanesulfonamido-1-indanone derivatives” (J Med Chem, 1995).

Data set [1] deals with T1, Prostaglandin G/H synthase 2 (Homo sapiens, UniProt P35354).
T1 sequence (P35354 whole entry): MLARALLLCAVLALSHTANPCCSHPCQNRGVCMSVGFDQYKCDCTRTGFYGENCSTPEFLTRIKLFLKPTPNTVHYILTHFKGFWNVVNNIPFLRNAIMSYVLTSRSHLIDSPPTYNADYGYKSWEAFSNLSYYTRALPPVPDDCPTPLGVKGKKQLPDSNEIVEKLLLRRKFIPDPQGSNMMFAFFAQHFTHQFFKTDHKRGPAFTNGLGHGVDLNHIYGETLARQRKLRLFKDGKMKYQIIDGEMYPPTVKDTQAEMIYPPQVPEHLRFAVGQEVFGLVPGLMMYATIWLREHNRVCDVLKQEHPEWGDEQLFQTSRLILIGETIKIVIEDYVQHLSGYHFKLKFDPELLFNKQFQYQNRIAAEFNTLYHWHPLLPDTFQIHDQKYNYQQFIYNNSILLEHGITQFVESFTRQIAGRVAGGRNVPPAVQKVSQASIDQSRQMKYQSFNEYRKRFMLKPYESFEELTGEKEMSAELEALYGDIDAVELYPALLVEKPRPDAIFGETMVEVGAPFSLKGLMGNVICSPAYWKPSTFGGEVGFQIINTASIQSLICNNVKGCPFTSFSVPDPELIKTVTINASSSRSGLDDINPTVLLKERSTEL
The data set can be described thus: In vitro inhibition of prostaglandin G/H synthase 2 expressed in human osteosarcoma 143 cells. The data set is classed as cell-based.

For data set [2], the target named is T2, Prostaglandin G/H synthase 2 (Homo sapiens) (UniProt P35354).
T2 sequence (whole entry): T1 sequence (P35354 whole entry)
The data set can be described thus: Ability to inhibit the Prostaglandin G/H synthase 2 expressed in human osteosarcoma 143 cells, in vitro. In kind it is cell-based. Conditions: concentration not given here.

For data set [3], the target named is Prostaglandin G/H synthase 1 (Homo sapiens, UniProt P23219). Nature of the data set: Inhibition of Prostaglandin G/H synthase 1 in human U937 cells. In kind it is cell-based, U-937.
Prostaglandin G/H synthase 1, sequence (P23219 whole entry): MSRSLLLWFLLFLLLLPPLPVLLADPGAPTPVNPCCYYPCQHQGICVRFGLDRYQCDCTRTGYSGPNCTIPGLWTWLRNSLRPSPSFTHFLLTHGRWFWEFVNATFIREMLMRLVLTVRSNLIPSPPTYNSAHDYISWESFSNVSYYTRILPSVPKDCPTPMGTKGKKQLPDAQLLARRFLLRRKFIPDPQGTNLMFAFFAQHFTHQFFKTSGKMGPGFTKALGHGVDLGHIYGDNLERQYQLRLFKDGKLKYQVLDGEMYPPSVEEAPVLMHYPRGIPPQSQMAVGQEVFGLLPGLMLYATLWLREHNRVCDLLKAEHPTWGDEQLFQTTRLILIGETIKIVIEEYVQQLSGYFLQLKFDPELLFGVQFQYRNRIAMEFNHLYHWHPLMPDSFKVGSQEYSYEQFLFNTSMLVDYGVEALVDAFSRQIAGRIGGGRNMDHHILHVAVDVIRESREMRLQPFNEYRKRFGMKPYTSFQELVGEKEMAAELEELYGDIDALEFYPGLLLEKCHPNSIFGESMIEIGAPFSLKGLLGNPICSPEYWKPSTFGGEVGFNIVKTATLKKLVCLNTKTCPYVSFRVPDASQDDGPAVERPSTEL
For data set [4], the system named is Rattus norvegicus. The data set can be described thus: In vivo antiinflammatory activity by the Carrageenan-induced rat paw edema assay. The data set is classed as functional.
The subject of data set [5] is Rattus norvegicus. The data set can be described thus: In vivo antipyretic activity by endotoxin-induced rat pyresis assay. The data set is classed as functional.
For data set [6], the system named is Rattus norvegicus. Nature of the data set: In vivo antiinflammatory activity by the Carrageenan-induced rat paw hyperalgesia assay. The data set is classed as functional. In general terms: In the carrageenan paw model, swelling and tenderness develop within hours.
Data set [7] in a line: Plasma clearance rate was determined for the compound in rats. Conditions: rat. The data set is classed as ADME, organism-based.
Data set [8] can be described thus: Plasma clearance rate was determined for the compound in squirrel monkeys. The data set is classed as ADME, organism-based. The conditions noted are these: saimiri.
Data set [9] in a line: Bioavailability in rat. Conditions: in vivo. In kind it is ADME, organism-based.
Data set [10] in a line: Bioavailability in squirrel monkey. In kind it is ADME, organism-based, Saimiri sciureus. Conditions: in vivo.
Data set [11] in a line: Plasma terminal half life in squirrel monkeys at a dose of 1 mg/kg administered intravenously. Also noted: dose 1 mg/kg, route intravenous. Conditions: saimiri, iv. The data set is classed as ADME, organism-based.
The test system of data set [12] is Rattus norvegicus. Nature of the data set: In vivo antiinflammatory activity by the Carrageenan-induced rat paw edema assay. The data set is classed as functional.
The nature of data set [13]: Plasma Clearance rate was determined for the compound in rats. The data set is classed as ADME, organism-based. The conditions noted are these: rat.
Data set [14] can be described thus: Plasma Clearance rate was determined for the compound in squirrel monkeys. In kind it is ADME, organism-based. The conditions noted are these: saimiri.

Molecules are shown by their SMILES. pIC50: −log10 of the molar value.

What is called pIC50 is the negative decadic logarithm of the IC50, by convention in mol/L. In data set [1], `O=C1CCc2cc(NC(=O)C(F)(F)F)c(Sc3ccc(F)cc3F)cc21` gave a pIC50 of less than 5.00.

Consider `CS(=O)(=O)Nc1cc2c(cc1Sc1ccncc1)C(=O)CC2`, for which, in data set [1], the pIC50 was 6.00.

A word on the inhibition: it is the relative decrease from the control value, in per cent. On to `CS(=O)(=O)Nc1cc2c(cc1[S+]([O-])c1ccc(F)cc1F)C(=O)CC2` (stereo unspecified), for which the inhibition in [2] stood at 27%.

`Cc1cccc(Sc2cc3c(cc2NS(C)(=O)=O)CCC3=O)c1`: in [1], the pIC50 is less than 5.00.

As to `CS(=O)(=O)Nc1cc2c(cc1Oc1ccc(S(C)(=O)=O)cc1)C(=O)CC2`, the pIC50 in data set [1] was less than 5.00.

On to `CS(=O)(=O)Nc1cc2c(cc1Sc1ccc(Cl)cc1Cl)C(=O)CC2`, for which the negative-log IC50 (pIC50) in data set [1] is 8.00; in data set [3] it was 4.40. Besides, the ED30 in data set [4] is 0.1 MPK.

`CS(=O)(=O)Nc1cc2c(cc1Sc1cccs1)C(=O)CC2` had a pIC50 in [1] of 6.00.

In [1], `CS(=O)(=O)Nc1cc2c(cc1OC1CCOCC1)C(=O)CC2` showed a pIC50 of less than 5.00.

For the compound `CS(=O)(=O)Nc1cc2c(cc1Sc1nccs1)C(=O)CC2`, the figures for the negative logarithm of the IC50 (pIC50) in data set [1] and in data set [3] were 7.00 and less than 5.00, respectively. This compound came in with an ED30 in data set [4] of 0.85 MPK.

For the compound `CS(=O)(=O)Nc1cc2c(cc1Sc1c(F)cccc1F)C(=O)CC2`, the pIC50 is 7.00 in [1] and less than 4.30 in data set [3].

Usually ED50 stands for the dose that gives a 50% effect, or the effect in half of the subjects. Regarding `COc1ccc2c(c1)c(CC(=O)O)c(C)n2C(=O)c1ccc(Cl)cc1` [INDOMETHACIN], the values for the ED50 in data set [5], in data set [4] and in data set [6] were 7 mg/kg, 2 mg/kg and 1.47 mg/kg, respectively.

As for `CS(=O)(=O)Nc1cc2c(cc1Sc1cccnc1)C(=O)CC2`, the inhibition in data set [2] stood at 30%.

For the compound `O=C1CCc2cc(NS(=O)(=O)C(F)(F)F)c(Sc3ccc(F)cc3F)cc21`, the pIC50 in data set [1] was 7.40.

The clearance is the rate of elimination divided by the concentration. What is called half-life is the time needed for the level to fall by half in the phase considered. On to `CS(=O)(=O)Nc1cc2c(cc1Sc1ccc(F)cc1F)C(=O)CC2`, for which the clearance in [7] and in data set [8] was 0.5 mL/min throughout. The bioavailability in data set [9] turned out to be 90%; in data set [10] it was 145%. Also, the half-life in [11] was 414 min. The compound further showed a pIC50 in [3] of less than 4.30. Further, in data set [12], the ED30 is recorded as 0.21 MPK.

On to `CS(=O)(=O)Nc1cc2c(cc1SC1CCCCC1)C(=O)CC2`, for which the pIC50 was 7.30 in data set [1] and less than 4.30 in data set [3]. In addition, the ED30 in data set [4] is reported as more than 3 MPK.

`CS(=O)(=O)Nc1cc2c(cc1Sc1ccc(Br)cc1)C(=O)CC2`: the pIC50 in data set [1] was 8.00; in data set [3], less than 5.00. Further, the ED30 in [4] is recorded as 3 MPK.

Consider `CS(=O)(=O)Nc1cc2c(cc1Sc1cscn1)C(=O)CC2`, for which, in data set [1], the pIC50 is less than 5.00.

In turn, `COc1ccccc1Sc1cc2c(cc1NS(C)(=O)=O)CCC2=O` gave a pIC50 in data set [1] of less than 5.00.

`Cc1ccc(Sc2cc3c(cc2NS(C)(=O)=O)CCC3=O)cc1`: the pIC50 in data set [3] was less than 6.00. Further, in data set [4], the ED30 was determined as 10 MPK.

As to `CS(=O)(=O)Nc1cc2c(cc1Sc1ccccc1F)C(=O)CC2`, the pIC50 was 7.00 in [1] and less than 4.30 in data set [3].

In data set [1], `CCc1ccc(Sc2cc3c(cc2NS(C)(=O)=O)CCC3=O)cc1` showed a pIC50 of 7.00.

`CC(C)c1ccc(Sc2cc3c(cc2NS(C)(=O)=O)CCC3=O)cc1` gave a pIC50 in data set [1] of less than 5.00.

As for `CS(=O)(=O)Nc1cc2c(cc1Cc1ccc(F)cc1F)C(=O)CC2`, the pIC50 was less than 6.70 in [1] and more than 6.00 in [3].

As for `CS(=O)(=O)Nc1cc2c(cc1Sc1cccc(F)c1)C(=O)CC2`, in [1], the pIC50 was less than 5.00.

`CSc1ccc(Oc2cc3c(cc2NS(C)(=O)=O)CCC3=O)cc1` had a pIC50 in [1] of 7.00.

On to `CS(=O)(=O)Nc1cc2c(cc1Oc1ccc(F)cc1F)C(=O)CC2` [FLOSULIDE], for which the clearance in data set [13] and in data set [14] was 1.2 mL/min throughout. Besides, the bioavailability in data set [9] is 92%; in [10], 63%. The half-life in [11] was 294 min. For the same compound, the pIC50 in [3] was less than 4.30. Further, the ED30 in [4] came to 0.6 MPK.

For the compound `CS(=O)(=O)Nc1cc2c(cc1Sc1ccc(F)cc1)C(=O)CC2`, the pIC50 in [1] was 6.00; in [3], less than 4.30.

Consider `CS(=O)(=O)Nc1cc2c(cc1Sc1cncs1)C(=O)CC2`, for which the pIC50 in data set [1] was less than 5.00.

As to `CS(=O)(=O)Nc1cc2c(cc1Sc1ccccn1)C(=O)CC2`, the pIC50 in data set [1] is 7.00.

For the compound `CS(=O)(=O)Nc1cc2c(cc1OC1CCCCC1)C(=O)CC2`, the pIC50 in data set [1] was 7.30; in [3] it was less than 6.00. Also, the ED30 in [4] came to 10 MPK.

In data set [1], `CC(=O)Nc1cc2c(cc1Sc1ccc(F)cc1F)C(=O)CC2` gave a pIC50 of less than 5.00.

In data set [1], `CC(C)(C)c1ccc(Sc2cc3c(cc2NS(C)(=O)=O)CCC3=O)cc1` showed a pIC50 of less than 5.00.

On to `CCS(=O)(=O)Nc1cc2c(cc1Sc1ccc(F)cc1F)C(=O)CC2`, for which the pIC50 in data set [1] and in data set [3] was less than 5.00 throughout.

On to `CS(=O)(=O)Nc1cc2c(cc1S(=O)(=O)c1ccc(F)cc1F)C(=O)CC2`, for which the pIC50 in data set [1] was less than 5.00.

`CS(=O)(=O)Nc1cc2c(cc1Nc1ccc(F)cc1F)C(=O)CC2` gave a pIC50 in data set [1] of 6.00.

On to `COc1ccc(Sc2cc3c(cc2NS(C)(=O)=O)CCC3=O)cc1`, for which, in data set [1], the pIC50 is 7.00.

The compound `CS(=O)(=O)Nc1cc2c(cc1Sc1ccsc1)C(=O)CC2` gave an inhibition in data set [2] of 46%.

Take `Cc1ccccc1Sc1cc2c(cc1NS(C)(=O)=O)CCC2=O`: the pIC50 in [3] was less than 4.30.

In turn, `CS(=O)(=O)Nc1cc2c(cc1Sc1ccc(C(=O)O)cc1)C(=O)CC2` gave a pIC50 in data set [1] of less than 5.00.

Consider `CS(=O)(=O)Nc1cc2c(cc1OC1CCCC1)C(=O)CC2`, for which the pIC50 was less than 6.00 in data set [1] and less than 5.00 in [3].
